# From patent publication US8017775B2, “1-2-dihydroquinoline derivative having glucocorticoid receptor binding activity” (Santen Pharmaceutical Co., Ltd., priority 2005, dated 2011)
# Target: T1, Recombinant human GR (Homo sapiens, UniProt P04150)
# T1 construct: purchased Invitrogen P2816
# T1 sequence (P04150 1-777): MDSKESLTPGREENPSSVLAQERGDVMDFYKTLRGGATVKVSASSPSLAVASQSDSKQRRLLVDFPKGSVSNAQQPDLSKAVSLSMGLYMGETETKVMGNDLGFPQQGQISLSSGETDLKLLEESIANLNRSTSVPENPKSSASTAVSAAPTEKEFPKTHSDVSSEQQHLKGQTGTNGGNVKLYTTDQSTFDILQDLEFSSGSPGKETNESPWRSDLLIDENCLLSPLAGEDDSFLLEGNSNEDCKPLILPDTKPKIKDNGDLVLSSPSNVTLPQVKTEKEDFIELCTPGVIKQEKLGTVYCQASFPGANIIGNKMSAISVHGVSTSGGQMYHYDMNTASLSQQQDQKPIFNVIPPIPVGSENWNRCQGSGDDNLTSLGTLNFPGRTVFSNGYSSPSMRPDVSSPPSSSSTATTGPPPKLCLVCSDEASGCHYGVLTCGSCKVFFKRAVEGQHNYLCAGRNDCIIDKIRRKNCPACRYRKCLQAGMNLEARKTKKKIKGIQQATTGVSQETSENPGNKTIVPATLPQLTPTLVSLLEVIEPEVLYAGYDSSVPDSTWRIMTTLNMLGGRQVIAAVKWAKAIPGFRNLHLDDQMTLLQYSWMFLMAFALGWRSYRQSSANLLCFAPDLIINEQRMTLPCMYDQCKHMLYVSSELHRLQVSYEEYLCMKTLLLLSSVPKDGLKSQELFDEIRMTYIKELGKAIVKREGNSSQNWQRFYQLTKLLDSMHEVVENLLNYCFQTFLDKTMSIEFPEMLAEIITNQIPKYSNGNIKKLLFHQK
# Test: GR competitor assay by fluorescence polarization (GR binding ratio)
# Settings: positive control 2 mM dexamethasone, a GR binding ratio of 100% or more is indicated by 100%
# Procedure: 1. Evaluation Test for Binding Activity to Glucocorticoid Receptor (hereinafter referred to as “GR”)
# In order to evaluate a binding activity to GR, a receptor competitor assay was carried out by a fluorescence polarization method. In the assay, a GR competitor assay kit (manufactured by Invitrogen, cat No. P2816) was used, and a procedure was carried out according to the protocol attached to the kit. Hereinafter, the specific method will be described.
# GR screening buffer: A buffer containing 10 mM potassium phosphate (pH 7.4), 20 mM sodium molybdate (Na2MoO4), 0.1 mM ethylene diamine tetraacetic acid (EDTA), 5 mM dithiothreitol (DTT), 0.1 mM stabilizing peptide and 2% dimethylsulfoxide was prepared.
# 4×GS1 solution: Fluormone™ GS1, which is a fluorescent glucocorticoid ligand, was diluted with GR screening buffer, whereby a 4 nM solution was prepared.
# 4×GR solution: Recombinant human GR was diluted with GR screening buffer, whereby a 16 nM solution was prepared.
# After a test compound was dissolved in dimethylsulfoxide, the resulting solution was diluted with GR screening buffer, whereby a 20 μM test compound solution was prepared.
# 1) The test compound solution was added in an amount of 25 μL or 10 μL into each well of a 96-well or 384-well plate, and then, 4×GS1 solution and 4×GR solution were added in an amount of 12.5 μL or 5 μL into each well, respectively.
# 2) The plate was incubated in a dark place at room temperature for 2 to 4 hours.
# 3) By using a multimode plate reader, Analyst™ HT (manufactured by LJL Biosystems), fluorescence polarization of each well was measured. As the blank, a well containing GR screening buffer in place of the test compound and 4×GS1 solution was used.
# 4) The same procedure as that in the above 1) to 3) was carried out except that GR screening buffer was used in place of the test compound solution, and the obtained result was taken as the negative control.
# 5) The same procedure as that in the above 1) to 3) was carried out except that 2 mM dexamethasone was used in place of the test compound solution, and the obtained result was taken as the positive control.
# A GR binding ratio (%) was calculated from the following equation.
# GR binding ratio (%)=100×[1−(fluorescence polarization of test compound solution−fluorescence polarization of positive control solution)/(fluorescence polarization of negative control solution−fluorescence polarization of positive control solution)]
row,GR Binding ratio (%),Structure (SMILES)
1,≥ 100,"COc1cc(F)ccc1-c1ccc2c(c1CNc1ccccc1CCO)C(C)=CC(C)(C)N2 [Compound 6-77, 6-(4-Fluoro-2-methoxyphenyl)-5-[2-(2-hydroxyethyl)phenylaminomethyl)-2,2,4-trimethyl-1,2-dihydroquinoline]"
2,≥ 100,"COc1ccc(F)cc1OCc1c(-c2ccc(F)cc2OC)ccc2c1C(C)=CC(C)(C)N2 [Compound 3-67, 5-(5-Fluoro-2-methoxyphenoxymethyl)-6-(4-fluoro-2-methoxyphenyl)-2,2,4-trimethyl-1,2-dihydroquinoline]"
3,99,"COc1cc(F)ccc1-c1ccc2c(c1COc1ccccc1C)C(C)=CC(C)(C)N2 [Compound 3-22, 6-(4-Fluoro-2-methoxyphenyl)-5-(2-methylphenoxymethyl)-2,2,4-trimethyl-1,2-dihydroquinoline]"
4,≥ 100,"COc1ccc(C)cc1-c1ccc2c(c1COC(=O)c1ccc(C)s1)C(C)=CC(C)(C)N2 [Compound 12-67, 6-(2-Methoxy-5-methylphenyl)-5-(5-methylthiophen-2-yl-carbonyloxymethyl)-2,2,4-trimethyl-1,2-dihydroquinoline]"
5,≥ 100,"COc1ccc([N+](=O)[O-])cc1OCc1c(-c2ccc(F)cc2OC)ccc2c1C(C)=CC(C)(C)N2 [Compound 3-61, 6-(4-Fluoro-2-methoxyphenyl)-5-(2-methoxy-5-nitrophenoxymethyl)-2,2,4-trimethyl-1,2-dihydroquinoline]"
6,≥ 100,"COc1ccc(Cl)cc1-c1ccc2c(c1COc1ccccc1CCO)C(C)=CC(C)(C)N2 [Compound 3-98, 6-(5-Chloro-2-methoxyphenyl)-5-[2-(2-Hydroxyethyl)phenoxymethyl]-2,2,4-trimethyl-1,2-dihydroquinoline]"
7,95,"COc1ccc(O)cc1-c1ccc2c(c1COc1cc(F)ccc1C)C(C)=CC(C)(C)N2 [Compound 5-4, 5-(5-Fluoro-2-methylphenoxymethyl)-6-(5-hydroxy-2-methoxyphenyl)-2,2,4-trimethyl-1,2-dihydroquinoline]"
8,≥ 100,"COc1ccc([N+](=O)[O-])cc1-c1ccc2c(c1COc1cc(F)ccc1C)C(C)=CC(C)(C)N2 [Compound 14-48, 5-(5-Fluoro-2-methylphenoxymethyl)-6-(2-methoxy-5-nitrophenyl)-2,2,4-trimethyl-1,2-dihydroquinoline]"
9,96,"COc1cc(F)c(F)cc1-c1ccc2c(c1CNc1ccccc1C)C(C)=CC(C)(C)N2 [Compound 6-59, 6-(4,5-Difluoro-2-methoxyphenyl)-5-(2-methylphenylaminomethyl)-2,2,4-trimethyl-1,2-dihydroquinoline]"
10,≥ 100,"COc1ccc(F)cc1-c1ccc2c(c1COc1cc(Cl)ccc1C)C(C)=CC(C)(C)N2 [Compound 14-41, 5-(5-Chloro-2-methylphenoxymethyl)-6-(5-fluoro-2-methoxyphenyl)-2,2,4-trimethyl-1,2-dihydroquinoline]"
11,95,"COc1cc(F)ccc1-c1ccc2c(c1COc1cc(Cl)ccc1Cl)C(C)=CC(C)(C)N2 [Compound 3-85, 5-(2,5-Diclorophenoxymethyl)-6-(4-fluoro-2-methoxyphenyl)-2,2,4-trimethyl-1,2-dihydroquinoline]"
12,≥ 100,"COc1ccc(Cl)cc1-c1ccc2c(c1COC(=O)c1ccc(C)s1)C(C)=CC(C)(C)N2 [Compound 12-69, 6-(5-Chloro-2-methoxyphenyl)-5-(5-methylthiophen-2-ylcarbonyloxymethyl)-2,2,4-trimethyl-1,2-dihydroquinoline]"
13,≥ 100,"COc1ccc(F)cc1-c1ccc2c(c1CNc1cc(F)ccc1C)C(C)=CC(C)(C)N2 [Compound 6-78, 6-(5-Fluoro-2-methoxyphenyl)-5-(5-fluoro-2-methylphenylaminomethyl)-2,2,4-trimethyl-1,2-dihydroquinoline]"
14,≥ 100,"COc1cc(F)ccc1-c1ccc2c(c1CNc1ccccc1C)C(C)=CC(C)(C)N2 [Compound 6-37, 6-(4-Fluoro-2-methoxyphenyl)-5-(2-methylphenylaminomethyl)-2,2,4-trimethyl-1,2-dihydroquinoline]"
15,≥ 100,"COc1ccc(C(=O)OCc2c(-c3ccc(F)cc3OC)ccc3c2C(C)=CC(C)(C)N3)cc1 [Compound 1-19, 6-(4-Fluoro-2-methoxyphenyl)-5-(4-methoxybenzoyloxymethyl)-2,2,4-trimethyl-1,2-dihydroquinoline]"
16,98,"COc1cc(F)ccc1-c1ccc2c(c1CNc1cccc(C)c1)C(C)=CC(C)(C)N2 [Compound 6-36, 6-(4-Fluoro-2-methoxyphenyl)-5-(3-methylphenylaminomethyl)-2,2,4-trimethyl-1,2-dihydroquinoline]"
17,≥ 100,"COc1cc(F)ccc1-c1ccc2c(c1COc1cc(C)ccc1C)C(C)=CC(C)(C)N2 [Compound 3-58, 5-(2,5-Dimethylphenoxymethyl)-6-(4-fluoro-2-methoxyphenyl)-2,2,4-trimethyl-1,2-dihydroquinoline]"
18,97,"COc1cc(F)ccc1-c1ccc2c(c1COc1cccc(C)c1)C(C)=CC(C)(C)N2 [Compound 3-21, 6-(4-Fluoro-2-methoxyphenyl)-5-(3-methylphenoxymethyl)-2,2,4-trimethyl-1,2-dihydroquinoline]"
19,≥ 100,"COc1ccc(C)cc1NCc1c(-c2ccc(F)cc2OC)ccc2c1C(C)=CC(C)(C)N2 [Compound 6-43, 6-(4-Fluoro-2-methoxyphenyl)-5-(2-methoxy-5-methylphenylaminomethyl)-2,2,4-trimethyl-1,2-dihydroquinoline]"
20,≥ 100,"COc1cc(F)ccc1-c1ccc2c(c1CNc1ccccc1C(C)C)C(C)=CC(C)(C)N2 [Compound 6-47, 6-(4-Fluoro-2-methoxyphenyl)-5-(2-isopropylphenylaminomethyl)-2,2,4-trimethyl-1,2-dihydroquinoline]"
21,≥ 100,"COc1cc(F)ccc1-c1ccc2c(c1COC(=O)c1ccc(Cl)s1)C(C)=CC(C)(C)N2 [Compound 12-22, 5-[(5-Chlorothiophen-2-yl)carbonyloxymethyl]-6-(4-fluoro-2-methoxyphenyl)-2,2,4-trimethyl-1,2-dihydroquinoline]"
22,≥ 100,"COc1ccc(C)cc1-c1ccc2c(c1COc1cc(F)ccc1C)C(C)=CC(C)(C)N2 [Compound 14-11, 5-(5-Fluoro-2-methylphenoxymethyl)-6-(2-methoxy-5-methylphenyl)-2,2,4-trimethyl-1,2-dihydroquinoline]"
23,≥ 100,"COc1ccc(C)cc1OCc1c(-c2ccc(F)cc2OC)ccc2c1C(C)=CC(C)(C)N2 [Compound 3-59, 6-(4-Fluoro-2-methoxyphenyl)-5-(2-methoxy-5-methylphenoxymethyl)-2,2,4-trimethyl-1,2-dihydroquinoline]"
24,≥ 100,"COc1ccccc1NCc1c(-c2cc(F)c(F)cc2OC)ccc2c1C(C)=CC(C)(C)N2 [Compound 6-27, 6-(4,5-Difluoro-2-methoxyphenyl)-5-(2-methoxyphenylaminomethyl)-2,2,4-trimethyl-1,2-dihydroquinoline]"
25,82,"COc1cc(F)ccc1-c1ccc2c(c1COC(=O)c1cccs1)C(C)=CC(C)(C)N2 [Compound 1-21, 6-(4-Fluoro-2-methoxyphenyl)-5-[(thiophene-2-yl)carbonyloxymethyl]-2,2,4-trimethyl-1,2-dihydroquinoline]"
